Where “and” joins values, the source holds several entries; their conditions need not be identical. Identical values can stand only once.
Columns and labels:
[1] = Functional assay to measure dose dependent changes in cell viability from drug treatment in Vero E6 miRFP670 cells (cotreated with P-gp inhibitor, CP100356) that are infected with Dengue virus type 2 New Guinea C. […] Cytotoxicity is reported via via analysis of DAPI count using high-content imager. The assay has been performed by KU Leuven.; assay type: toxicity, cell-based, Vero C1008; settings: chlorocebus sabaeus, p-gp concentration 500 nM
[2] = Functional metabolic assay to measure dose dependent changes in cell viability from drug treatment in Vero E6/TMPRSS2 cells (cotreated with P-gp inhibitor, Elacridar). […] Cytotoxicity is reported via measuring absorbance and analysis of MTT/MTS assays in uninfected cells. The assay has been performed by Icahn School of Medicine at Mount Sinai.; assay type: toxicity, cell-based, VeroE6/TMPRSS2; settings: chlorocebus sabaeus, p-gp concentration 2 uM
[3] = Functional CPE-based assay to measure dose dependent changes in cell viability from drug treatment in Vero E6 miRFP670 cells (cotreated with P-gp inhibitor, CP100356). Cells are treated with antiviral candidates that have been serially diluted. Cytotoxicity is reported via analysis of MTS assays in uninfected cells. The assay has been performed by KU Leuven.; assay type: toxicity, Vero C1008; settings: chlorocebus sabaeus, p-gp concentration 500 nM
[4] = with CP100356 (P-gp inhibitor, concentration not stated)
[5] = Vero E6/TMPRSS2 cells, with Elacridar (P-gp inhibitor, concentration not stated)
[6] = Vero E6 miRFP670 cells, with CP100356 (P-gp inhibitor, concentration not stated)

| SMILES | CC50 [1, 4] | CC50 [2, 5] | CC10 ([2]; veroe6/tmprss2) | also measured |
| --- | --- | --- | --- | --- |
| O=C(Nc1cc(Cl)cc(CNc2cccc(-c3nn[nH]n3)c2)c1)OCc1ccccc1 | > 50 µM |  |  |  |
| O=C(O)CCc1ccc(NC(=O)c2cc(Cl)cc(NC(=O)OCc3ccccc3)c2)cc1 |  | > 50 µM | > 50 µM |  |
| O=C(Nc1cc(Cl)cc(C(=O)Nc2cc(Br)cc(-c3nnn[nH]3)c2)c1)OCc1ccccc1 |  | > 50 µM | > 50 µM |  |
| C=CC[C@H](Nc1cc(Cl)cc(NC(=O)OCc2ccccc2)c1)c1cccc(-c2nn[nH]n2)c1 |  | > 50 µM | 0.105 µM |  |
| NCCCc1ccnc(NC(=O)c2cc(Cl)cc(NC(=O)OCc3ccccc3)c2)c1 |  | 16.2 µM | 2.116 µM |  |
| CC[C@H](Cc1nn[nH]n1)c1ccc(N[C@H](C(=O)NC)c2cc(Cl)cc(NC(=O)OCc3ccccc3)c2)cc1 |  | > 50 µM | > 50 µM |  |
| O=C(Nc1cc(Cl)cc([C@H](C#CCO)Nc2ccc(-c3nn[nH]n3)cc2)c1)OCc1ccccc1 | > 50 µM |  |  |  |
| CC(=Cc1cccc(CN)c1)c1cc(Cl)cc(NC(=O)OCc2ccccc2)c1 | 3.26 µM |  |  |  |
| NCc1cccc(NC(=O)c2cc(Cl)cc(N3CCCC3=O)c2)c1 |  |  |  | CC50 ([2]; veroe6/tmprss2): > 50 µM |
| CNC(=O)[C@H](Nc1cc(Cl)cc(NC(=O)OCc2ccccc2)c1)c1cccc(-c2nn[nH]n2)c1 |  | > 50 µM | > 50 µM |  |
| O=C(Nc1ccc2c(c1)CNC2)c1cc(Cl)cc2[nH]c(-c3cccc(F)c3)nc12 |  |  |  | CC50 [3, 6]: > 50 µM |
| N[C@H]1CC[C@H](c2ccc(NC(=O)c3cc(Cl)cc(NC(=O)OCc4ccccc4)c3)cc2)C1 | 2.84 µM |  |  |  |
| NCc1cccc(NC(=O)c2cc(Cl)cc(NC(=O)OCc3ccccc3)c2)c1 |  |  |  | CC50 ([2]; veroe6/tmprss2): > 10 µM and 18.5 µM and 30.7 µM |
| CNC(=O)[C@H](Nc1cccc(CN)c1)c1cc(Cl)cc(NC(=O)OCc2ccccc2)c1 | 23.7 µM |  |  |  |
| CC[C@H](Cc1nnn[nH]1)c1ccc(NC(=O)[C@H]2[C@H]3CCCCC[C@H]3[C@H]2NC(=O)OCc2ccccc2)cc1 |  | > 50 µM | > 50 µM |  |
| CC(=O)Nc1cc(Cl)cc(C(=O)Nc2cccc(CN)c2)c1 |  | > 50 µM | > 50 µM |  |
| Clc1cccc([C@H](C#Cc2ccccc2)Nc2cccc(-c3nn[nH]n3)c2)c1 | 6.84 µM |  |  |  |
| NCc1cccc(NC(=O)[C@H]2[C@H]3CCCCC[C@H]3[C@H]2NC(=O)OCc2ccccc2)c1 |  | 10.3 µM | 0.166 µM |  |
| O=C(Nc1cc(Cl)cc(C(=O)Nc2cc(-c3nnn[nH]3)ccc2F)c1)OCc1ccccc1 |  | > 50 µM | > 50 µM |  |
| O=C(Nc1ccc2c(c1)CN[C@H]2C1CC1)c1cc(F)cc2[nH]ncc12 |  |  |  | CC50 [3, 6]: > 50 µM |

| SMILES | CC50 [1, 4] | CC50 [2, 5] | CC10 ([2]; veroe6/tmprss2) | also measured |
| --- | --- | --- | --- | --- |
| Cc1ccc(-c2nnn[nH]2)cc1NC(=O)c1cc(Cl)cc(NC(=O)OCc2ccccc2)c1 |  | > 50 µM | > 50 µM |  |
| NCc1cccc(NC(=O)[C@@H](NC(=O)OCc2ccccc2)c2ccc(Br)c(Cl)c2)c1 |  | 8.15 µM | 0.556 µM |  |
| NCc1ccc([C@H]2C[C@@H]2c2cc(Cl)cc(NC(=O)OCc3ccccc3)c2)cc1 | 3.51 µM |  |  |  |
| CCCC(=O)Nc1cc(Cl)cc(C(=O)Nc2cccc(CN)c2)c1 |  | > 50 µM | > 50 µM |  |
| C=CC[C@H](Nc1cccc(-c2nn[nH]n2)c1)c1cc(Cl)cc(NC(=O)OCc2ccccc2)c1 | 6.9 µM |  |  |  |
| O=C(Nc1cc(Cl)cc(C(=O)Nc2ccc3c(c2)CCNC3)c1)OCc1ccccc1 | 2.91 µM |  |  |  |
| O=C(Nc1ccc2c(c1)CNC2)c1cc(F)cc2nn(-c3ccccn3)nc12 |  |  |  | CC50 ([3]; vero c1008): 7.85 µM and 1.85 µM; CC50 ([1]; vero c1008): 7.3 µM and 1.92 µM |
| O=C(Nc1cc(Cl)cc(C(=O)Nc2ccc3c(c2)CNCCO3)c1)OCc1ccccc1 |  | > 50 µM | < 0.023 µM |  |
| C[C@H]1NCc2cc(NC(=O)c3cc(F)cc4[nH]ncc34)ccc21 |  |  |  | CC50 [3, 6]: > 50 µM |
| CNC(=O)c1cc(Cl)c(F)cc1NS(=O)(=O)c1ccc(Oc2ccccc2Cl)cc1 | 5.65 µM |  |  |  |
| CNC(=O)[C@H](Nc1cc(Cl)cc(NC(=O)OCc2ccccc2)c1)c1cccc(CN)c1 | 24.2 µM |  |  |  |
| O=C(Nc1ccc2c(c1)CNC2)c1cc(Cl)cc2[nH]c(-c3ccccc3)nc12 |  |  |  | CC50 [3, 6]: 2.09 µM |
| CC[C@H](Cc1nnn[nH]1)c1ccc(NC(=O)c2cc(Cl)cc(C3CC3)c2)cc1 |  | > 50 µM | > 50 µM |  |
| O=C(Nc1ccc2c(c1)CNC2)c1cc(F)cc2[nH]c(-c3ccccc3)nc12 |  |  |  | CC50 [3, 6]: 5.81 µM; CC50 ([3]; vero c1008): 4.83 µM; CC50 ([1]; vero c1008): > 50 µM and 6.86 µM |
| O=C(Nc1cc(Cl)cc(N[C@H](C#CCO)c2ccc(-c3nn[nH]n3)cc2)c1)OCc1ccccc1 |  | > 50 µM | > 50 µM |  |
| N#C[C@H](Nc1cc(Cl)cc(NC(=O)OCc2ccccc2)c1)c1ccc(-c2nn[nH]n2)cc1 | 13 µM |  |  |  |
| O=C(O)c1cc(Cl)ccc1S(=O)(=O)NC1CCN(c2nc(C3CC3)cc(C(F)(F)F)n2)CC1 |  |  |  | CC50 ([2]; veroe6/tmprss2): > 10 µM and 49.7 µM |
| NCc1cccc(NC(=O)c2cc(Cl)cc3c2CCC3)c1 |  |  |  | CC50 ([2]; veroe6/tmprss2): > 50 µM |
| O=C(Nc1cc(Cl)cc(C(=O)Nc2ccc([C@@H]3C[C@H]3C(=O)O)cc2)c1)OCc1ccccc1 | 21.1 µM |  |  |  |
